Data from patent US8637528B2, “Use of PDE7 inhibitors for the treatment of movement disorders” (Omeros Corporation, priority 2007, dated 2014).

Tests used:
PDE1B = PDE1B (Homo sapiens (Human), UniProt Q01064); assay: PDE selectivity SPA assay, PDE1B; assay type: biochemical; conditions: IC50 against PDE1B divided by IC50 against PDE7A
Description: (§1) Phosphodiesterase activity was measured by a scintillation proximity assay (SPA, GE Healthcare: Product Code TRKQ7100) with [^3H]-cAMP as the substrate for PDEs 3A, 4A, 8A, or with [^3H]-cGMP as the substrate for PDEs 1B, 2A, 5A, 9A, 10A and 11A. Purified human PDE1B, PDE2A, PDE3A, PDE4A, PDE5A, PDE8A, PDE9A and PDE11A4 were obtained from BPS Bioscience, San Diego, Calif. Purified murine PDE10A was also obtained from BPS Biosciences. […] Therefore, the results obtained using murine PDE10A are believed to be representative of human PDE10.
(§2) The purified PDE enzymes were each diluted and stored in a solution containing 25 mM Tris-Cl (pH 8.0), 100 mM NaCl, 0.05% Tween 20, 50% glycerol, and 3 mM DTT. PDE assays were carried out in the following assay cocktail (final concentrations): 50 mM Tris-Cl (pH 8.0), 8.3 mM MgCl2, 1.7 mM EGTA, 0.5 mg/ml BSA, 2.5% DMSO and between 0.2 ng and 6 ng of the PDE protein (depending on the enzyme activity) in a final volume of 0.1 mL.
(§3) Reactions were initiated by addition of enzyme, incubated for 20 minutes at 30° C. and then terminated by the addition of 50 μl of SPA beads containing Zn^2+.
(§4) The mixture was shaken, and allowed to settle for 3 hours. Then the production of [^3H]-AMP or [^3H]-GMP from the substrate was quantitated by scintillation counting in a Wallac® plate counter. […]

PDE4A = PDE4A (Homo sapiens (Human), UniProt P27815); assay: PDE selectivity SPA assay, PDE4A; assay type: biochemical; conditions: IC50 against PDE4A divided by IC50 against PDE7A
Description: as §1, §2, §3, §4

PDE7A = PDE7A (Homo sapiens (Human), UniProt Q13946); assay: PDE7 phosphodiesterase scintillation proximity assay (SPA), PDE7A; assay type: biochemical; conditions: for Fold Selectivity, PDE7A: IC50 against PDE7A divided by IC50 against PDE7A; for selectivity for inhibition of the PDE7A enzyme as compared to the other PDEs: versus PDE1B, 2A, 3A, 4A, 5A, 8A, 9A, 10A, 11A
MPTP-treated mice = assay: inked paw stride length in the MPTP mouse model of Parkinson's disease, confirmatory study (Example 6); assay type: in vivo; set-up: key to Letter Designation (statistical group of stride length): A: Groups that share a letter are not statistically different; groups that do not share a letter are significantly different from each other.; B: Groups that share a letter are not statistically different; groups that do not share a letter are significantly different from each other.; C: Groups that share a letter are not statistically different; groups that do not share a letter are significantly different from each other; conditions: for Letter Designation (statistical group of stride length): No treatment = A, MPTP = B; for Stride length (cm) MEAN ± SEM: MPTP-lesioned mice, 20 minutes after dosing
Description: Adult male C57BL/6J; retired breeders, aged between 7-9 months (Jackson Laboratory, Bar Harbor, Me., USA), singly housed.
MPTP Mice received 2 subcutaneous injections of methylphenyltetrahydropyridine (“MPTP”) at a dose of 15 mg/kg (free base) with a 10-12 hour interval between injections. Control mice (sham lesion groups) were administered saline instead of MPTP.
Seven days after MPTP/saline administration, OM69 was administered to mice. For each dose, a 100× stock of OM69 was prepared in 100% DMSO and subsequently diluted 100× into phosphate buffered saline (PBS). Then 100 μL of this 1× solution was administered intraperitoneally (IP).
Prior to injection with MPTP or saline, animals were pre-trained to walk across a clean sheet of paper into their home cage without stopping. For assessment of stride length, animals had their forepaws placed in black ink and the length of forepaw steps during normal walking (in a straight line only) was measured. The animals were immediately put back into their home cage upon completion of the task. Stride length was determined by measuring the distance between each step on the same side of the body, measuring from the middle toe of the first step to the heel of the second step. An average of at least four clear steps was calculated.
Data was analyzed using Prism 4.0 software. Groups were analyzed by one way ANOVA and Student-Newman-Keuls post hoc test when appropriate. Significance was considered reached at p<0.05. Treatment groups in the stride length graph that are statistically different are indicated by the letters in Table 6.
Retired breeder male mice (28 animals total) were treated with 2×15 mg/kg MPTP (12 saline; […]) to induce a Parkinsonian state (neurochemical loss of dopamine with corresponding behavioral deficits). On day 1 baseline stride length was measured and then all mice were treated with MPTP or saline. On day 8 stride length was measured again, and then the MPTP-treated animals were divided randomly into two groups of fourteen. As described in Example 5, dosing with the successive treatments indicated in FIG. 12 occurred on consecutive days, and in each case stride length was measured 20 minutes after dosing.
On Day 9, Group 1 animals were treated with OM69 (0.01 mg/kg) and Group 2 were treated with L-dopa (1 mg/kg). On Day 10, Group 1 animals were treated with OM69 (0.03 mg/kg) and Group 2 were treated with L-dopa (5 mg/kg). On Day 11, Group 1 animals were treated with OM69 (0.05 mg/kg) and Group 2 were treated with OM69 (0.1 mg/kg). On Day 12, Group 1 was treated with OM69 (0.07 mg/kg).
Next, for combination studies, the two groups were combined. On Day 14, all the animals were treated with both L-dopa (1 mg/kg) and OM69 (0.01 mg/kg). On Day 15, all the animals were treated with L-dopa (1 mg/kg) in combination with a higher dose of OM69 (0.03 mg/kg).

gabapentin receptor = gabapentin receptor (Rattus norvegicus, UniProt P54290); assay: Gabapentin radioligand binding assay; conditions: 10.0 μM
Dopamine D4.2 receptor = Dopamine D4.2 receptor (Homo sapiens (Human), UniProt P21917, DEL265-296); assay: Dopamine D4.2 radioligand binding assay; conditions: 10.0 μM
Chain of Dopamine D4.2 receptor (P21917 other isoform, or with tags, fused parts or gaps del 265-296): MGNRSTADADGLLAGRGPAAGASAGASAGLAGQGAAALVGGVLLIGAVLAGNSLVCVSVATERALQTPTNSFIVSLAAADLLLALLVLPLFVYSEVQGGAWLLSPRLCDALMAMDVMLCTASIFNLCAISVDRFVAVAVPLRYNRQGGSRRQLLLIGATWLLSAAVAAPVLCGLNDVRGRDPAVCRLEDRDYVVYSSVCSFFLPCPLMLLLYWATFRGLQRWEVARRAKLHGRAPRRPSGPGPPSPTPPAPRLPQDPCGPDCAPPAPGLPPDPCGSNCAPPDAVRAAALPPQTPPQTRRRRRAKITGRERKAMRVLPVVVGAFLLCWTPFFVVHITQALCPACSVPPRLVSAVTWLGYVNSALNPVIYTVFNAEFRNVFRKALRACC

Chain of PDE7A (Q13946 whole entry, looked up): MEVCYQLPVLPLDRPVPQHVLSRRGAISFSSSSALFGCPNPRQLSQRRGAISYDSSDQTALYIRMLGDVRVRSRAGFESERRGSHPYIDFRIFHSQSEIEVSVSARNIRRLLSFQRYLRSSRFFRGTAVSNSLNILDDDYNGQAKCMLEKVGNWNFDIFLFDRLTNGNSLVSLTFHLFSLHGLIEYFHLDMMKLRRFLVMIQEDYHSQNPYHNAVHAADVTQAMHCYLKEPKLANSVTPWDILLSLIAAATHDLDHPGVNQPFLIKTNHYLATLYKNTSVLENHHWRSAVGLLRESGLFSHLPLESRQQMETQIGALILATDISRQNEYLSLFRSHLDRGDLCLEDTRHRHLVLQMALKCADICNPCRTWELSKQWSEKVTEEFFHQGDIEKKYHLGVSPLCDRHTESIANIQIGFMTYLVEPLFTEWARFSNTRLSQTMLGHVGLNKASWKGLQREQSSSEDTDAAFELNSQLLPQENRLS
Chain of PDE4A (P27815 whole entry): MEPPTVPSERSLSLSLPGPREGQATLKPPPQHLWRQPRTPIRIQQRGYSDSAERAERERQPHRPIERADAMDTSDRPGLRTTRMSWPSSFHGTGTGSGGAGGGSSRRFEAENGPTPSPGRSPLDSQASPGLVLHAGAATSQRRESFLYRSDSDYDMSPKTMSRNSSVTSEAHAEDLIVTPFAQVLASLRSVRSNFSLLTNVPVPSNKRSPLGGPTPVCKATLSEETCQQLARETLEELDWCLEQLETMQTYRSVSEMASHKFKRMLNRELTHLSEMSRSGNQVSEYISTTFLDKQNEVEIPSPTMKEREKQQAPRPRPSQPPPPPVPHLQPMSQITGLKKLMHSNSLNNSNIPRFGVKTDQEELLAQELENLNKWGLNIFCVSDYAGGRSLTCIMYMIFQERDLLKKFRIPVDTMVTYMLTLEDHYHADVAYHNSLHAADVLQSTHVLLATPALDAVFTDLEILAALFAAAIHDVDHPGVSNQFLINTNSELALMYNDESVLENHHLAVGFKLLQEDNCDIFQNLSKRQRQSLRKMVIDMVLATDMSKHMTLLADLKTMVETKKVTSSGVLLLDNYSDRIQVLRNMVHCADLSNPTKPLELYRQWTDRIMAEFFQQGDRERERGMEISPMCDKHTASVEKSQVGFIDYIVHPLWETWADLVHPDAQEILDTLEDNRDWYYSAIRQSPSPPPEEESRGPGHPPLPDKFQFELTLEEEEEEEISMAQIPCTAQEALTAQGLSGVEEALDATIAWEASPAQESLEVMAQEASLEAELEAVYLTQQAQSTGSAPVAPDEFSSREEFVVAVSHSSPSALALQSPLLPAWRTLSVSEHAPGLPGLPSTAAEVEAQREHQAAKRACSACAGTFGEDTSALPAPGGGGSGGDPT
Chain of PDE1B (Q01064 whole entry): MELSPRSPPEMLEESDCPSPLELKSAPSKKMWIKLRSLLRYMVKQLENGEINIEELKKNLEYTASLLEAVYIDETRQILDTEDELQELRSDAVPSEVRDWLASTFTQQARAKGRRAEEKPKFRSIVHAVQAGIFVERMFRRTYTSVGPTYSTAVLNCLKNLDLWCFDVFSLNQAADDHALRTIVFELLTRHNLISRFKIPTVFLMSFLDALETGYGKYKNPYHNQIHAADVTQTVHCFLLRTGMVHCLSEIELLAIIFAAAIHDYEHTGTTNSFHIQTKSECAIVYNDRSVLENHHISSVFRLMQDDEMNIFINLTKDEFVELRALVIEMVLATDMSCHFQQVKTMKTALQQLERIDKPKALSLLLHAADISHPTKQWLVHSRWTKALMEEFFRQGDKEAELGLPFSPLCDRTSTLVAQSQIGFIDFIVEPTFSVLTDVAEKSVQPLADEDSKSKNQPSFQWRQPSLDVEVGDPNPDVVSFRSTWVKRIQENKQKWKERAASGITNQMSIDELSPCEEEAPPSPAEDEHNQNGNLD
Chain of gabapentin receptor (P54290 25-944 limits assumed): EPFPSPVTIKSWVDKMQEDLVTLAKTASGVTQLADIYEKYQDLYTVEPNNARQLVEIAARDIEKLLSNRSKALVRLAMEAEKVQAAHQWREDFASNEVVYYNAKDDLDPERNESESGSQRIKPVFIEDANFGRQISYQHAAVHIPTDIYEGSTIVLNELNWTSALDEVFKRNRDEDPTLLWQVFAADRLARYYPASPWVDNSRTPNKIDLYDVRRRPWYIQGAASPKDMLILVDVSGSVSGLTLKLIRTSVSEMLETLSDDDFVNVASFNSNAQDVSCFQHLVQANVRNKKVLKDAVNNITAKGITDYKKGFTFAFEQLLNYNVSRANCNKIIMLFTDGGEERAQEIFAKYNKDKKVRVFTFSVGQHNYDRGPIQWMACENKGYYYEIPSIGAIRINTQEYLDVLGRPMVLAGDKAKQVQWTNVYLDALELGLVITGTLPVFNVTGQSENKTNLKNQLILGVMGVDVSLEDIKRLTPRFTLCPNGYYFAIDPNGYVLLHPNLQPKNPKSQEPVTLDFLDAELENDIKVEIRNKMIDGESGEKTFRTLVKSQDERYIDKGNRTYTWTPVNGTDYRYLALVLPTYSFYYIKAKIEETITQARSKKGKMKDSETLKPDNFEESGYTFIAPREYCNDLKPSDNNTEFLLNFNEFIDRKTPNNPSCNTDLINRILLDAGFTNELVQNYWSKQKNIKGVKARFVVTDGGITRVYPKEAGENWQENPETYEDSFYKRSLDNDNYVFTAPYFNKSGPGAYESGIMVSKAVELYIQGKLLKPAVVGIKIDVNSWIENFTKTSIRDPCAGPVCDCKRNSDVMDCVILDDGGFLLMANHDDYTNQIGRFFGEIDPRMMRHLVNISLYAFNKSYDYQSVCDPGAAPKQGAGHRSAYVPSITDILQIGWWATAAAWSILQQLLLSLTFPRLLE
Chain of gabapentin receptor (P54290 945-1091 limits assumed): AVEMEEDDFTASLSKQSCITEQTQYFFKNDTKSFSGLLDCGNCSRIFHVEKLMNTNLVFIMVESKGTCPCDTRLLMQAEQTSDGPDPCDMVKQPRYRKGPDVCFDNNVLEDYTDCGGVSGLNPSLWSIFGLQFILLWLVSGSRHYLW

`O=C1Nc2c(Cl)ccc(OCCO)c2C2(CCCCC2)N1` [OM955] was tested, and the “Fold Selectivity for PDE7A versus PDE1B” value (PDE1B) was 342 fold, the “Fold Selectivity for PDE7A versus PDE4A” value (PDE4A) was 113 fold and the IC50 (PDE7A) was 51.8 nM. The “potency of PDE7A inhibition, in words” value (PDE7A) was “moderate potency”, the “selectivity between PDE7A and PDE7B, in words” value (PDE7A) was “little or no selectivity” and the “Fold Selectivity, PDE7A” value (PDE7A) was 1 fold. The “selectivity for inhibition of the PDE7A enzyme as compared to the other PDEs” value (PDE7A) was “greater than 100 fold”.
`N[C@@H](Cc1ccc(O)c(O)c1)C(=O)O` [L-dopa, levodopa, reference compound] was tested, and the “Letter Designation (statistical group of stride length)” value (shortened to “Letter Designation”) (MPTP-treated mice; 1 mg/kg L-DOPA) was “B”, the “Letter Designation” value (MPTP-treated mice; 5 mg/kg L-DOPA) was “A” and the “Stride length (cm) MEAN ± SEM” value (MPTP-treated mice; 1 mg/kg L-DOPA) was 5.78 ± 0.09 cm. The “Stride length (cm) MEAN ± SEM” value (MPTP-treated mice; 5 mg/kg L-DOPA) was 7.29 ± 0.07 cm, the “effect on stride length, in words” value (MPTP-treated mice; MPTP-treated mice, 1 mg/kg L-dopa) was “did not result in a significant increase in stride length” and the “effect on stride length, in words” value (MPTP-treated mice; MPTP-treated mice, 5 mg/kg L-dopa) was “returned stride length to control (unlesioned) values”.
In the case of `COc1cc(N)ccc1-c1cc2c(c(=O)[nH]1)C(C1CCCCC1)N=[N+]2C` (stereo not shown) [OM69], the “percent inhibition of ligand binding, Gabapentin” value (gabapentin receptor) is reported as 15.0%, the “Fold Selectivity for PDE7A versus PDE1B” value (PDE1B) is reported as 29,608 fold and the “Fold Selectivity for PDE7A versus PDE4A” value (PDE4A) is reported as 6500 fold. The “percent inhibition of ligand binding to Dopamine D4.2” value (Dopamine D4.2 receptor) was −16.0%, the IC50 (PDE7A) was 1.3 nM and the “potency of PDE7A inhibition, in words” value (PDE7A) was “high potency”. For the same molecule, the “selectivity between PDE7A and PDE7B, in words” value (PDE7A) was “little or no selectivity”, the “Fold Selectivity, PDE7A” value (PDE7A) was 1 fold and the “selectivity for inhibition of the PDE7A enzyme as compared to the other PDEs” value (PDE7A) was “greater than 1000 fold”. For the same molecule, the “Letter Designation” value (MPTP-treated mice; 0.01 mg/kg OM69) was “B”, the “Letter Designation” value (MPTP-treated mice; 0.03 mg/kg OM69) was “B” and the “Letter Designation” value (MPTP-treated mice; 0.05 mg/kg OM69) was “C”. The “Letter Designation” value (MPTP-treated mice; 0.07 mg/kg OM69) was “C”, the “Letter Designation” value (MPTP-treated mice; 0.1 mg/kg OM69) was “A” and the “Stride length (cm) MEAN ± SEM” value (MPTP-treated mice; 0.01 mg/kg OM69 IP) was 5.77 ± 0.17 cm. The “Stride length (cm) MEAN ± SEM” value (MPTP-treated mice; 0.03 mg/kg OM69 IP) was 5.93 ± 0.14 cm, the “Stride length (cm) MEAN ± SEM” value (MPTP-treated mice; 0.05 mg/kg OM69 IP) was 6.38 ± 0.14 cm and the “Stride length (cm) MEAN ± SEM” value (MPTP-treated mice; 0.07 mg/kg OM69 IP) was 6.65 ± 0.18 cm. The “Stride length (cm) MEAN ± SEM” value (MPTP-treated mice; 0.1 mg/kg OM69 IP) was 7.23 ± 0.07 cm, the “potency relative to L-dopa in restoring stride length” value (MPTP-treated mice; MPTP-treated mice) was “approximately 50 fold” and the “effect on stride length, in words” value (MPTP-treated mice; MPTP-treated mice, 0.1 mg/kg OM69) was “returned stride length to control (unlesioned) values”. The “dose dependence of the effect on stride length, in words” value (MPTP-treated mice; MPTP-treated mice, FIG. 18) was “increases stride length in MPTP-treated mice in a dose-dependent manner”, the “effect on stride length, in words” value (MPTP-treated mice; MPTP-treated mice, intermediate doses of OM69) was “statistically significant (p<0.05) increase in stride length” and the “effect on stride length, in words” value (MPTP-treated mice; MPTP-treated mice, low doses of OM69 (0.01 mg/kg or 0.03 mg/kg)) was “did not increase stride length”.
